US20250129076A1, “FUSED TETRACYCLIC COMPOUNDS, COMPOSITIONS AND DIAGNOSTIC APPLICATIONS THEREOF” (priority 2021, published 2025)
Entries after “also recorded” stand apart in the source; their conditions may differ.

Experiments:
Calf Thymus DNA (CT-DNA) = test: Increase in fluorescence upon binding with Calf Thymus DNA; settings: figure legends FIG. 12-22
Experimental: 1 mg/ml stock solutions of all the compounds were prepared in DMSO. Few insoluble compounds were then dissolved in non-polar solvent. 10 ul (1 mg/ml) of each of the compounds were used to do an absorbance scan in the TECAN nano reader and the graphs were plotted. The absorbance peaks for each of the compounds were tabulated and further used as excitation wavelength for fluorescence scans. Initially an absorbance scan was performed to identify the excitation maxima after which the excitation wavelength was used to obtain the emission maxima/fluorescence plots. Once the excitation and emission maxima were known, different concentrations of the compounds were used starting from 10 ng to saturating concentrations to obtain fluorescent spectra. Similarly, a fixed concentration of the compound was used to which an increasing concentration of DNA/RNA was added until saturation to find the nucleic acid binding properties of the dyes and compounds. In addition, a fixed concentration of DNA/RNA was used, to which increasing concentrations of the compounds were added until saturation. The data obtained was plotted and used for calculating binding constants and determining the binding ability of the dyes and compounds. 1 mg/ml stock solutions of all compounds the were prepared in DMSO. Few insoluble compounds were then dissolved in nonpolar solvent. 10 ul (1 mg/ml) of each of the compounds were used to do an absorbance scan in the TECAN nano reader and the graphs were plotted. The absorbance peaks for each of the compounds were tabulated and further used as excitation wavelength for fluorescence scans. Initially an absorbance scan was performed to identify the excitation maxima after which the excitation wavelength was used to obtain the fluorescence plots. Once the excitation and emission maxima were known, different concentrations of the compounds were used starting from 10 ng to saturating concentrations to obtain fluorescent spectra. Similarly, a fixed concentration of the said compound was used to which an increasing concentration of DNA/RNA was added until saturation to find the nucleic acid binding properties of the dyes and compounds. In addition, a fixed concentration of DNA/RNA was used, to which increasing concentrations of the compounds were added until saturation. The data obtained was plotted and used for calculating binding constants and determining the binding ability of the dyes and compounds.

RNA = test: Detection of RNA binding by the compounds (Table 2); settings: yes = binding detected, empty cells not reported
DNA [1] = test: Detection of DNA binding by the compounds (Table 2); settings: yes = binding detected, empty cells not reported
DNA [2] = test: Emission maxima with DNA; type: binding; settings: Table 6
Experimental: The absorbance peaks for each of the compounds were tabulated and further used as excitation wavelength for fluorescence scans. Initially an absorbance scan was performed to identify the excitation maxima after which the excitation wavelength was used to obtain the emission maxima/fluorescence plots. Once the excitation and emission maxima were known, different concentrations of the compounds were used starting from 10 ng to saturating concentrations to obtain fluorescent spectra. Similarly, a fixed concentration of the compound was used to which an increasing concentration of DNA/RNA was added until saturation to find the nucleic acid binding properties of the dyes and compounds. In addition, a fixed concentration of DNA/RNA was used, to which increasing concentrations of the compounds were added until saturation. The data obtained was plotted and used for calculating binding constants and determining the binding ability of the dyes and compounds.
(§1) 1 mg/ml stock solutions of all compounds the were prepared in DMSO. Few insoluble compounds were then dissolved in nonpolar solvent. 10 ul (1 mg/ml) of each of the compounds were used to do an absorbance scan in the TECAN nano reader and the graphs were plotted. The absorbance peaks for each of the compounds were tabulated and further used as excitation wavelength for fluorescence scans. Initially an absorbance scan was performed to identify the excitation maxima after which the excitation wavelength was used to obtain the fluorescence plots. Once the excitation and emission maxima were known, different concentrations of the compounds were used starting from 10 ng to saturating concentrations to obtain fluorescent spectra. Similarly, a fixed concentration of the said compound was used to which an increasing concentration of DNA/RNA was added until saturation to find the nucleic acid binding properties of the dyes and compounds. In addition, a fixed concentration of DNA/RNA was used, to which increasing concentrations of the compounds were added until saturation. The data obtained was plotted and used for calculating binding constants and determining the binding ability of the dyes and compounds.

[3] = Absorbance and fluorescence scans (excitation and emission maxima); type: physicochemical; set-up: unit not given here; settings: compound alone; Table 6
Experimental: 1 mg/ml stock solutions of all the compounds were prepared in DMSO. Few insoluble compounds were then dissolved in non-polar solvent. 10 ul (1 mg/ml) of each of the compounds were used to do an absorbance scan in the TECAN nano reader and the graphs were plotted.
The absorbance peaks for each of the compounds were tabulated and further used as excitation wavelength for fluorescence scans. Initially an absorbance scan was performed to identify the excitation maxima after which the excitation wavelength was used to obtain the emission maxima/fluorescence plots. Once the excitation and emission maxima were known, different concentrations of the compounds were used starting from 10 ng to saturating concentrations to obtain fluorescent spectra. Similarly, a fixed concentration of the compound was used to which an increasing concentration of DNA/RNA was added until saturation to find the nucleic acid binding properties of the dyes and compounds. In addition, a fixed concentration of DNA/RNA was used, to which increasing concentrations of the compounds were added until saturation. The data obtained was plotted and used for calculating binding constants and determining the binding ability of the dyes and compounds. […]
as §1

RNA of E. coli BL21 = test: Working concentration of compound (25) for RNA detection, agarose gel electrophoresis; type: binding; settings: 10-50 ng RNA with 5, 10, 20, 40 ng of compound 25; 1% agarose gel, TBE buffer
Experimental: To check the working concentration of compound (25) using different concentrations of RNA, RNA of E. coli BL21 was isolated and diluted to 10 ng/μl from the stock. Using a TBE buffer 1% agarose gel was casted and gel electrophoresis is performed using 10-50 ng concentration of RNA with 5, 10, 20, 40 ng of compound 25.

Protein = test: Detection of protein binding by the compounds (Table 2); settings: yes = binding detected, empty cells not reported
Text: Absorbance Spectra and Fluorescence Spectra conditions for compound+DNA/RNA/Protein Methods of experimentation: An Excitation Max: 488 nm, Emission Max: 560 nm, Band width: 488-600 nm on Alexa Fluor 488 channel were used for flow cytometry and microscopic determinations TECAN spectrofluorimeter.

[4] = Comparison with commonly available DNA staining agents: photostability (Table 3); type: physicochemical
[5] = Comparison with commonly available DNA staining agents: toxicity (Table 3); settings: Hoescht and DAPI cells wrap: 'Potentially carcinogenic & Mutagenic'
double-stranded DNA = settings: when bound; cited from earlier work

| Compound | increase in fluorescence upon binding with Calf Thymus DNA (CT-DNA) (Calf Thymus DNA (CT-DNA)) [fold] | RNA (binding detected) (RNA) | DNA (binding detected) (DNA [1]) | Emission maxim with DNA (DNA [2]) [nm] | Emission maxima [3] | Excitation Maxima [3] | further results |
| --- | --- | --- | --- | --- | --- | --- | --- |
| COc1cc(/C=C2\COc3cc(O)ccc3C2=O)ccc1O [Compound 007] | 25 | Yes | yes | – | – | – | – |
| COc1ccc2c(c1)OC/C(=C\c1ccc(OC)c(OC)c1)C2=O [Compound 009] | 15 | yes | – | – | – | – | – |
| O=C1/C(=C/c2ccc(O)c(O)c2)COc2cc(O)ccc21 [Compound 015] | – | yes | yes | 610 | 570 | 490 | – |
| Cc1ccc2c(c1)OC/C(=C\c1ccc(C)c(C)c1)C2=O [Compound 016] | 5 | – | yes | 610 | 610 | 490 | – |
| Oc1ccc2c(c1)OC[C@](O)(Cc1ccc(O)c(O)c1)[C@H]2O [Compound 017] | > 1000 | yes | yes | – | – | – | – |
| O=C1C=C2C(=C[C@@]3(O)COc4cc(O)ccc4[C@@H]23)C=C1O [Compound 019] | > 1000 | – | yes | 570 | 570 | 490 | – |
| COc1ccc2c(c1)SCC1=C2c2cc(OC)c(OC)cc2C1 [Compound 021] | – | yes | – | – | – | – | – |
| CN1C/C(=C\c2ccc(O)c(O)c2)C(=O)c2ccc(O)cc21 [Compound 025] | > 1000 | yes | – | – | – | – | RNA bands on gel (RNA of E. coli BL21): bands are in all the wells |
| Cc1ccc(C)cc1 [Compound 026] | – | yes | yes | 590 | 580 | 490 | – |
| CCc1cc(O)ccc1C(=O)/C=C/C1=CC(OC)C(O)C=C1 (centres unmarked) [Compound 031] | – | yes | – | 610 | 610 | 490 | – |
| Cc1cc2c(cc1O)OC[C@]1(O)Cc3cc(O)c(O)cc3[C@H]21 [Compound 032] | – | – | – | 570 | 570 | 490 | – |
| Oc1ccc2c(c1)OC[C@]1(O)Cc3cc(O)c(O)cc3[C@H]21 [Compound 033] | > 1000 | yes | yes | – | – | – | – |
| Oc1cc2c(cc1O)[C@@H]1c3cc(-c4ccccc4)c(O)cc3OC[C@]1(O)C2 [Compound 035] | > 1000 | yes | – | 580 | 580 | 490 | Protein (binding detected) (Protein): yes |
| Oc1cc2c(cc1O)[C@@H]1c3cc(-c4ccc(F)cc4)c(O)cc3OC[C@]1(O)C2 [Compound 037] | > 1000 | yes | yes | – | – | – | Protein (binding detected) (Protein): yes |
| COc1cc2c(cc1OC)[C@@H]1c3cc(-c4ccccc4)c(OC)cc3N(S(=O)(=O)c3ccc(C)cc3)C[C@]1(O)C2 [Compound 038] | 2 | yes | – | – | – | – | – |
| Cc1ccc(S(=O)(=O)N2C[C@]3(O)Cc4cc(O)c(O)cc4[C@@H]3c3cc(-c4ccc(F)cc4)c(O)cc32)cc1 [Compound 039] | – | – | yes | – | – | – | – |
| N=C(N)c1ccc(-c2cc3ccc(C(=N)N)cc3[nH]2)cc1 [DAPI] | – | – | – | – | – | – | Photostability [4]: 10 min; Toxicity [5]: carcinogenic; also recorded: & Mutagenic |
| CCCN(CCCN(C)C)c1cc(/C=C2/Sc3ccccc3N2C)c2ccccc2[n+]1-c1ccccc1 [SYBR Green] | – | – | – | – | – | – | absorbs at a wavelength (double-stranded DNA): around 497 nm; emits fluorescence (double-stranded DNA): around 530 nm |
